Assay results published in article PMC3418399 (Molecular microbiology, 2012).
Starred links: 1 amine or outer side, 2 acyl side, 3 side chain; linkers in the order of their positions; H or OH if unused. Positions of bridges follow the written chain, without caps; N, C: chain ends. Non-standard residues stand in square brackets, D forms with d. Residues, ends and D or L forms follow the SMILES beside them. *: point of attachment. hTyr(3S-OH,4S-OH,3'-OSO3H) = N[C@H](C(=O)O)[C@H](O)[C@@H](O)c1ccc(O)c(OS(=O)(=O)O)c1; Orn(4R-OH,5R-OH) = O=C([C@H](C[C@@H](O)[C@@H](O)N[*:3])N[*:1])[*:2]; Pro(3S-OH,4S-Me) = C[C@H]1CN[C@H](C(=O)O)[C@H]1O; X1 = CCCCCOc1ccc(-c2cc(-c3ccc(C(=O)*)cc3)no2)cc1; Gln(3R-OH) = NC(=O)C[C@@H](O)[C@H](N)C(=O)O; Hyp = O=C(O)[C@@H]1C[C@@H](O)CN1

What was measured:
Assay in all cases: MIC, liquid microdilution
Type in all cases: cell-based, Saccharomyces cerevisiae
Conditions in all cases: 48 h
[1] = tested on: EL4-2 (CaCdr1p Q1226R)
[2] = tested on: EL3 (CaCdr1p Q714K)
[3] = tested on: EL4-1 (CaCdr1p Q1226K)
[4] = tested on: AD/CDR1 (Wild type CaCdr1p)
[5] = tested on: AD/pABC3 (Control)
[6] = tested on: EL1/TM2 (CaCdr1p G547R)
[7] = tested on: TM5 (CaCdr1p V674F)
[8] = tested on: EL6 (CaCdr1p Q1445R)
[9] = EL4-2, Q1226R, milbemycins and micafungin, I95, CSM pH 7.0, 30°C
[10] = EL3, Q714K, milbemycins and micafungin, I95, CSM pH 7.0, 30°C
[11] = EL4-1, Q1226K, milbemycins and micafungin, I95, CSM pH 7.0, 30°C
[12] = AD/CDR1, Wild type, milbemycins and micafungin, I95, CSM pH 7.0, 30°C
[13] = AD/pABC3, Control, milbemycins and micafungin, I95, CSM pH 7.0, 30°C
[14] = EL1/TM2, G547R, milbemycins and micafungin, I95, CSM pH 7.0, 30°C
[15] = TM5, V674F, milbemycins and micafungin, I95, CSM pH 7.0, 30°C
[16] = EL6, Q1445R, milbemycins and micafungin, I95, CSM pH 7.0, 30°C

Compound `C[C@@H]1C[C@@H]([C@H](O)CC2CC(=O)NC(=O)C2)C(=O)[C@@H](C)C1` [Cycloheximide] has an MIC ([1]; Saccharomyces cerevisiae, pH 7) of 1 µg/mL, an MIC ([2]; Saccharomyces cerevisiae, pH 7) of 1 µg/mL and an MIC ([3]; Saccharomyces cerevisiae, pH 7) of 0.5 µg/mL. The MIC ([4]; Saccharomyces cerevisiae, pH 7) was 1 µg/mL, the MIC ([5]; Saccharomyces cerevisiae, pH 7) was 0.008 µg/mL and the MIC ([6]; Saccharomyces cerevisiae, pH 7) was 0.5 µg/mL. The MIC ([7]; Saccharomyces cerevisiae, pH 7) was 1 µg/mL and the MIC ([8]; Saccharomyces cerevisiae, pH 7) was 2 µg/mL.

With `C=CC[C@@H]1/C=C(\C)C[C@H](C)C[C@H](OC)[C@H]2O[C@@](O)(C(=O)C(=O)N3CCCC[C@H]3C(=O)O[C@H](/C(C)=C/[C@@H]3CC[C@@H](O)[C@H](OC)C3)[C@H](C)[C@@H](O)CC1=O)[C@H](C)C[C@@H]2OC` [FK506] the MIC ([1]; Saccharomyces cerevisiae, pH 7) was 40 µg/mL, the MIC ([2]; Saccharomyces cerevisiae, pH 7) was 40 µg/mL and the MIC ([3]; Saccharomyces cerevisiae, pH 7) was 40 µg/mL. For the same compound, the MIC ([4]; Saccharomyces cerevisiae, pH 7) was 40 µg/mL, the MIC ([5]; Saccharomyces cerevisiae, pH 7) was 0.313 µg/mL and the MIC ([6]; Saccharomyces cerevisiae, pH 7) was 40 µg/mL. It also gave an MIC ([7]; Saccharomyces cerevisiae, pH 7) of 40 µg/mL and an MIC ([8]; Saccharomyces cerevisiae, pH 7) of 40 µg/mL.

`OC(Cn1cncn1)(Cn1cncn1)c1ccc(F)cc1F` [Fluconazole] showed an MIC ([1]; Saccharomyces cerevisiae, pH 7) of 240 µg/mL, an MIC ([2]; Saccharomyces cerevisiae, pH 7) of 240 µg/mL and an MIC ([3]; Saccharomyces cerevisiae, pH 7) of 80 µg/mL. It also gave an MIC ([4]; Saccharomyces cerevisiae, pH 7) of 240 µg/mL, an MIC ([5]; Saccharomyces cerevisiae, pH 7) of 0.5 µg/mL and an MIC ([6]; Saccharomyces cerevisiae, pH 7) of 100 µg/mL. The MIC ([7]; Saccharomyces cerevisiae, pH 7) was 160 µg/mL and the MIC ([8]; Saccharomyces cerevisiae, pH 7) was 240 µg/mL.

With `CC(=O)N1CCN(c2ccc(OCC3COC(Cn4ccnc4)(c4ccc(Cl)cc4Cl)O3)cc2)CC1` (stereo not drawn) [Ketoconazole] the MIC ([1]; Saccharomyces cerevisiae, pH 7) was 4 µg/mL, the MIC ([2]; Saccharomyces cerevisiae, pH 7) was 4 µg/mL and the MIC ([3]; Saccharomyces cerevisiae, pH 7) was 1 µg/mL. For the same compound, the MIC ([4]; Saccharomyces cerevisiae, pH 7) was 4 µg/mL, the MIC ([5]; Saccharomyces cerevisiae, pH 7) was 0.156 µg/mL and the MIC ([6]; Saccharomyces cerevisiae, pH 7) was 1 µg/mL. The MIC ([7]; Saccharomyces cerevisiae, pH 7) was 3 µg/mL and the MIC ([8]; Saccharomyces cerevisiae, pH 7) was 4 µg/mL.

With `CCCCCOc1ccc(-c2cc(-c3ccc(C(=O)N[C@H]4C[C@@H](O)[C@@H](O)NC(=O)[C@@H]5[C@@H](O)[C@@H](C)CN5C(=O)[C@H]([C@H](O)CC(N)=O)NC(=O)[C@H]([C@H](O)[C@@H](O)c5ccc(O)c(OS(=O)(=O)O)c5)NC(=O)[C@@H]5C[C@@H](O)CN5C(=O)[C@H]([C@@H](C)O)NC4=O)cc3)no2)cc1` [Micafungin] (X1-[Orn(4R-OH,5R-OH)]T[Hyp][hTyr(3S-OH,4S-OH,3'-OSO3H)][Gln(3R-OH)][Pro(3S-OH,4S-Me)]; lactam 1-C) the MIC ([1]; Saccharomyces cerevisiae, pH 7) was 0.125 µg/mL, the MIC ([3]; Saccharomyces cerevisiae, pH 7) was 0.125 µg/mL and the MIC ([4]; Saccharomyces cerevisiae, pH 7) was 0.125 µg/mL. It also gave an MIC ([5]; Saccharomyces cerevisiae, pH 7) of 0.25 µg/mL, an MIC ([6]; Saccharomyces cerevisiae, pH 7) of 0.125 µg/mL and an MIC ([7]; Saccharomyces cerevisiae, pH 7) of 0.125 µg/mL.

`Clc1ccc(COC(Cn2ccnc2)c2ccc(Cl)cc2Cl)c(Cl)c1` (stereo not drawn) [Miconazole] showed an MIC ([1]; Saccharomyces cerevisiae, pH 7) of 3 µg/mL, an MIC ([2]; Saccharomyces cerevisiae, pH 7) of 2.5 µg/mL and an MIC ([3]; Saccharomyces cerevisiae, pH 7) of 1 µg/mL. The MIC ([4]; Saccharomyces cerevisiae, pH 7) was 2.5 µg/mL, the MIC ([5]; Saccharomyces cerevisiae, pH 7) was 0.156 µg/mL and the MIC ([6]; Saccharomyces cerevisiae, pH 7) was 1 µg/mL. The MIC ([7]; Saccharomyces cerevisiae, pH 7) was 2 µg/mL and the MIC ([8]; Saccharomyces cerevisiae, pH 7) was 3 µg/mL.

`CC(C)=CC(=O)OCC1=C[C@H]2C(=O)O[C@H]3C[C@@H](C/C=C(\C)C[C@@H](C)/C=C/C=C4\CO[C@H]([C@@H]1O)[C@@]42O)O[C@@]1(CC[C@H](C)[C@@H](C)O1)C3` [Milbemycin α11] was tested, and the MIC [1, 9] was 4 µg/mL, the MIC [2, 10] was 4 µg/mL and the MIC [3, 11] was 8 µg/mL. It also gave an MIC [4, 12] of 4 µg/mL, an MIC [5, 13] of 4 µg/mL and an MIC [6, 14] of 8 µg/mL. For the same compound, the MIC [7, 15] was greater than 8 µg/mL and the MIC [8, 16] was 4 µg/mL.

`C/C=C(\C)C(=O)OCC1=C[C@H]2C(=O)O[C@H]3C[C@@H](C/C=C(\C)C[C@@H](C)/C=C/C=C4\CO[C@H]([C@@H]1O)[C@@]42O)O[C@@]1(CC[C@H](C)[C@@H](C)O1)C3` [Milbemycin α20] showed an MIC [1, 9] greater than 8 µg/mL, an MIC [2, 10] greater than 8 µg/mL and an MIC [3, 11] greater than 8 µg/mL. The MIC [4, 12] was greater than 8 µg/mL, the MIC [5, 13] was greater than 8 µg/mL and the MIC [6, 14] was greater than 8 µg/mL. The MIC [7, 15] was greater than 8 µg/mL and the MIC [8, 16] was greater than 8 µg/mL.

In the case of `CC1=C[C@H]2C(=O)O[C@H]3C[C@@H](C/C=C(\C)C[C@@H](C)/C=C/C=C(\C)[C@]2(O)[C@H](O)[C@@H]1O)O[C@@]1(CC[C@H](C)[C@@H](C)O1)C3` [Milbemycin β11], the MIC [1, 9] is reported as greater than 8 µg/mL, the MIC [2, 10] is reported as greater than 8 µg/mL and the MIC [3, 11] is reported as greater than 8 µg/mL. It also gave an MIC [4, 12] greater than 8 µg/mL, an MIC [5, 13] greater than 8 µg/mL and an MIC [6, 14] greater than 8 µg/mL. The MIC [7, 15] was greater than 8 µg/mL and the MIC [8, 16] was greater than 8 µg/mL.

`CC/N=c1\cc2oc3cc(NCC)c(C)cc3c(-c3ccccc3C(=O)OCC)c-2cc1C` [Rhodamine 6G] showed an MIC ([1]; Saccharomyces cerevisiae, pH 7) of 50 µM, an MIC ([2]; Saccharomyces cerevisiae, pH 7) of 75 µM and an MIC ([3]; Saccharomyces cerevisiae, pH 7) of 50 µM. For the same compound, the MIC ([4]; Saccharomyces cerevisiae, pH 7) was 75 µM, the MIC ([5]; Saccharomyces cerevisiae, pH 7) was 1 µM and the MIC ([6]; Saccharomyces cerevisiae, pH 7) was 50 µM. The MIC ([7]; Saccharomyces cerevisiae, pH 7) was 50 µM and the MIC ([8]; Saccharomyces cerevisiae, pH 7) was 75 µM.
